Data taken from patent US9562033B2, “Inhibitors of viral replication, their process of preparation and their therapeutical uses” (LABORATOIRE BIODIM, priority 2012, dated 2017).
pEC50: −log10 of the molar value.

System: NL4-3 strain of HIV-1
Experiment: HIV-1 replication inhibition: cyto-protection of MT4 cells infected with NL4-3 virus (CellTiter-Glo viability assay)
Format: cell-based
Conditions: Human immunodeficiency virus 1, NL43, 120 h, concentration leading to 50% of cyto-protection, 5 days incubation
Experimental: The antiviral activity, particularly against HIV, of compounds according to the invention is evaluated by the protocol described below.
Preparation of Virus Stock of the NL4-3 Strain of HIV-1
The virus was prepared as described in Lopez et al (Lopez et al, Proc Natl Acad Sci USA., 2006, 103(40):14947-52, by transfecting 2×10^6 293 T cells (CRL-1573, ATCC) with following modifications: 6 μg of NL4-3 proviral DNA molecular clone were mixed with Fugene 6 transfection reagent from Roche, and used according to manufacturer's instructions. Forty eight hours later, transfected cell supernatants were harvested, filtered through 0.45-μm-pore-size filters, quantified for HIV-1 p24 antigen by using a Innotest HIV antigen mAb assay (Ingen) according to manufacturer's instructions, and used in infection experiments.
Preparation of Compounds:
Serial dilutions of compounds to be tested were prepared in complete RPMI medium from 10 mM DMSO stock solutions, and distributed in a volume of 20 µl in 96 well Falcon 353072 Microtest™ tissue culture plate, in order to get 0.5% DMSO final concentration in each well, after the addition of infected cells. Control wells contained also 0.5% DMSO final concentration but no compound.
MT4 cells (from the NIH AIDS Research and Reference Reagent Program) in RPMI complete medium were counted (10×10^6 cells per well in Falcon 353047 Multiwell™ 24 well) and infected for 2 hours at 37°, at a multiplicity of infection (moi) of 0.0001-0.00001. Cells were then centrifuged 3 min at 3000 rpm, and washed two times in 1 ml PBS to remove viruses that have not entered in cells. Infected cells were resuspended in complete RPMI at 1.25×10^6 cells/ml, and 80 µl of infected cells were distributed in each well containing compounds to be tested or control wells. The plates were then incubated at 37° for 5 days.
Assay Used to Measure the Inhibition of HIV Replication by the Compounds
(according to Gregg S. Jones et al., Antimicrobial Agents and Chemotherapy, 2009, 53 (3): 1194-1203).
After 5 days of incubation, […] of CellTiter-Glo reagent (Promega Biosciences, Inc., Madison Wis., USA) were added to each well. Cell lysis was carried out at room temperature during 10 min, 150 μl of lysates were transferred in Packard Optiplate 96 well, and luminescence was read on a Fluoroskan (Thermo Scientific).

| Structure (SMILES) | pEC50 |
| --- | --- |
| Cc1sc(-c2ccccc2C(N)=O)c(C2=CCC(C)(C)CC2)c1C(OC(C)(C)C)C(=O)O (centres unmarked) [Example 55, 2-(tert-butoxy)-2-{2-methyl-4-[4,4-dimethylcyclohex-1-en-1-yl]-5-(carboxamidephen-2-yl)thiophen-3-yl}acetic acid] | 7.05 |
| Cc1sc(C2=CCCC2)c(C2=CCC(C)(C)CC2)c1C(OC(C)(C)C)C(=O)O (centres unmarked) [Example 59, 2-(tert-butoxy)-2-[4-(4,4-dimethylcyclohex-1-en-1-yl)-5-(cyclopenten-1-yl)-2-methylthiophen-3-yl]acetic acid] | 6.17 |
| Cc1sc(C2=CCCCC2)c(C2=CCC(C)(C)CC2)c1C(OC(C)(C)C)C(=O)O (centres unmarked) [Example 57, 2-(tert-butoxy)-2-[4-(4,4-dimethylcyclohex-1-en-1-yl)-5-(cyclohexen-1-yl)-2-methylthiophen-3-yl]acetic acid] | 5.92 |
| COC1(C)CC=C(c2c(-c3cnc4c(c3)CCCO4)sc(C)c2C(OC(C)(C)C)C(=O)O)CC1 (centres unmarked) [Example 82, 2-(tert-butoxy)-2-[4-(4-methoxy-4-methylcyclohex-1-en-1-yl)-2-methyl-5-{2H,3H,4H-pyrano[2,3-b]pyridin-6-yl}thiophen-3-yl]acetic acid] | 6.00 |
| Cc1ccnc(-c2sc(C)c(C(OC(C)(C)C)C(=O)O)c2C2=CCC(C)(C)CC2)c1 (centres unmarked) [Example 72, 2-(tert-butoxy)-2-{2-methyl-4-[4,4-dimethylcyclohex-1-en-1-yl]-5-(4-methylpyridin-2-yl)thiophen-3-yl}acetic acid] | 5.64 |
| CC(=O)NCc1ccc(-c2sc(C)c(C(OC(C)(C)C)C(=O)O)c2-c2ccc3c(c2)CCCO3)cc1 (centres unmarked) [Example 21, 2-(tert-butoxy)-2-[4-(3,4-dihydro-2H-1-benzopyran-6-yl)-5-[4-(acetamidomethyl)phenyl]-2-methylthiophen-3-yl]acetic acid] | 6.24 |
| Cc1sc(-c2ccc(C(N)=O)cc2)c(-c2ccc3c(c2)CCCO3)c1C(OC(C)(C)C)C(=O)O (centres unmarked) [Example 22, 2-(tert-butoxy)-2-[5-(4-carbamoylphenyl)-4-(3,4-dihydro-2H-1-benzopyran-6-yl)-2-methylthiophen-3-yl]acetic acid] | 6.52 |
| Cc1sc(-c2ccc(S(=O)(=O)N(C)C)cc2)c(C2=CCC(C)(C)CC2)c1C(OC(C)(C)C)C(=O)O (centres unmarked) [Example 77, 2-(tert-butoxy)-2-[4-(4,4-dimethylcyclohex-1-en-1-yl)-5-[4-(dimethylsulfamoyl)phenyl]-2-methylthiophen-3-yl]acetic acid] | 5.36 |
| Cc1sc(C2CC2)c(C2=CCC(C)(C)CC2)c1C(OC(C)(C)C)C(=O)O (centres unmarked) [Example 66, 2-(tert-butoxy)-2-{2-methyl-4-[4,4-dimethylcyclohex-1-en-1-yl]-5-(cyclopropyl)thiophen-3-yl}acetic acid] | 5.96 |
| Cc1sc(-c2ccsn2)c(-c2ccc3c(c2)CCCO3)c1C(OC(C)(C)C)C(=O)O (centres unmarked) [Example 86, 2-(tert-butoxy)-2-[4-(3,4-dihydro-2H-1-benzopyran-6-yl)-2-methyl-5-(1,2-thiazol-3-yl)thiophen-3-yl]acetic acid] | 6.57 |
| CCCNC(=O)c1ccc(-c2sc(C)c(C(OC(C)(C)C)C(=O)O)c2C2=CCC(C)(C)CC2)cc1 (centres unmarked) [Example 36, 2-(tert-butoxy)-2-[4-(4,4-dimethylcyclohex-1-en-1-yl)-2-methyl-5-[4-(propylcarbamoyl)phenyl]thiophen-3-yl]acetic acid] | 7.00 |
| Cc1sc(-c2cccn2C)c(-c2ccc3c(c2)CCCO3)c1C(OC(C)(C)C)C(=O)O (centres unmarked) [Example 81, 2-(tert-butoxy)-2-[4-(3,4-dihydro-2H-1-benzopyran-6-yl)-2-methyl-5-(1-methyl-1H-pyrrol-2-yl)thiophen-3-yl]acetic acid] | 5.60 |
| Cc1sc(-c2ccncc2)c(C2=CCC(C)CC2)c1C(OC(C)(C)C)C(=O)O (centres unmarked) [Example 10, 2-(tert-butoxy)-2-[2-methyl-4-(4-methylcyclohex-1-en-1-yl)-5-(pyridin-4-yl)thiophen-3-yl]acetic acid] | 6.85 |
| Cc1sc(-c2ccccc2)c(-c2ccc3c(c2)CCCO3)c1C(OC(C)(C)C)C(=O)O (centres unmarked) [Example 1, 2-(tert-butoxy)-2-[4-(3,4-dihydro-2H-1-benzopyran-6-yl)-2-methyl-5-phenylthiophen-3-yl]acetic acid] | 6.59 |
| CC(C)(C)OC(C(=O)O)c1c(C(F)(F)F)sc(-c2ccccc2)c1-c1ccc2c(c1)CCCO2 (centres unmarked) [Example 60, 2-(tert-butoxy)-2-[4-(3,4-dihydro-2H-1-benzopyran-6-yl)-5-phenyl-2-(trifluoromethyl)thiophen-3-yl]acetic acid] | 6.30 |
| CCOC(C(=O)O)c1c(C)sc(-c2ccncc2)c1C1=CCC(C)(C)CC1 (centres unmarked) [Example 64, 2-[4-(4,4-dimethylcyclohex-1-en-1-yl)-2-methyl-5-(pyridin-4-yl)thiophen-3-yl]-2-ethoxyacetic acid] | 6.15 |
| Cc1sc(N2CCCC2=O)c(C2=CCC(C)(C)CC2)c1C(OC(C)(C)C)C(=O)O (centres unmarked) [Example 68, 2-(tert-butoxy)-2-{2-methyl-4-[4,4-dimethylcyclohex-1-en-1-yl]-5-(N-pyrrolidinone)thiophen-3-yl}acetic acid] | 5.72 |
| CC(C)(C)OC(C(=O)O)c1c(CO)sc(-c2ccncc2)c1-c1ccc2c(c1)CCCO2 (centres unmarked) [Example 38, 2-(tert-butoxy)-2-[4-(3,4-dihydro-2H-1-benzopyran-6-yl)-2-(hydroxymethyl)-5-(pyridin-4-yl)thiophen-3-yl]acetic acid] | 5.64 |
| Cc1sc(-c2cncnc2)c(C2=CCC(C)(C)CC2)c1C(OC(C)(C)C)C(=O)O (centres unmarked) [Example 25, 2-(tert-butoxy)-2-[4-(4,4-dimethylcyclohex-1-en-1-yl)-2-methyl-5-(pyrimidin-5-yl)thiophen-3-yl]acetic acid] | 6.72 |
| CNC(=O)c1ccccc1-c1sc(C)c(C(OC(C)(C)C)C(=O)O)c1C1=CCC(C)(C)CC1 (centres unmarked) [Example 56, 2-(tert-butoxy)-2-{2-methyl-4-[4,4-dimethylcyclohex-1-en-1-yl]-5-(N-methylbenzamide-2-yl)thiophen-3-yl}acetic acid] | 6.92 |
| Cc1sc(-c2nsc(Cl)c2C)c(C2=CCC(C)(C)CC2)c1C(OC(C)(C)C)C(=O)O (centres unmarked) [Example 62, 2-(tert-butoxy)-2-{2-methyl-4-[4,4-dimethylcyclohex-1-en-1-yl]-5-(5-chloro-4-methyl-isothiazol-3-yl)thiophen-3-yl}acetic acid] | 6.09 |
| CCCNC(=O)c1cccc(-c2sc(C)c(C(OC(C)(C)C)C(=O)O)c2C2=CCC(C)(C)CC2)c1 (centres unmarked) [Example 42, 2-(tert-butoxy)-2-[4-(4,4-dimethylcyclohex-1-en-1-yl)-2-methyl-5-[3-(propylcarbamoyl)phenyl]thiophen-3-yl]acetic acid] | 7.40 |
| CCCc1ccc(-c2sc(C)c(C(OC(C)(C)C)C(=O)O)c2C2=CCC(C)(C)CC2)nc1 (centres unmarked) [Example 52, 2-(tert-butoxy)-2-{2-methyl-4-[4,4-dimethylcyclohex-1-en-1-yl]-5-(5-(n-propyl)pyridin-2-yl)thiophen-3-yl}acetic acid] | 6.03 |
| Cc1sc(-c2ccncc2)c(C2=CCC(C)(C)CC2)c1C(OC(C)(C)C)C(=O)O (centres unmarked) [Example 5, 2-(tert-butoxy)-2-[4-(4,4-dimethylcyclohex-1-en-1-yl)-2-methyl-5-(pyridin-4-yl)thiophen-3-yl]acetic acid] | 7.39 |
| Cc1sc(-c2ccncc2)c(C2=CCC(C)(CF)CC2)c1C(OC(C)(C)C)C(=O)O (centres unmarked) [Example 53, [4-(4-fluoromethyl-4-methylcyclohex-1-enyl)-2-methyl-5-pyridin-4-yl-thiophen-3-yl]-tert-butoxy-acetic acid] | 7.15 |
| Cc1sc(-c2cnc3c(c2)CCCO3)c(C2=CCC(C)(C)CC2)c1C(OC(C)(C)C)C(=O)O (centres unmarked) [Example 7] | 7.09 |
| Cc1sc(-c2cnn(C)c2)c(C2=CCC(C(C)C)CC2)c1C(OC(C)(C)C)C(=O)O (centres unmarked) [Example 26, 2-(tert-butoxy)-2-{2-methyl-4-[4-(propan-2-yl)cyclohex-1-en-1-yl]-5-(N-methylpyrazol-4-yl)thiophen-3-yl}acetic acid] | 6.08 |
| Cc1sc(-c2ccc(F)cc2)c(-c2ccc3c(c2)CCCO3)c1C(OC(C)(C)C)C(=O)O (centres unmarked) [Example 2, 2-(tert-butoxy)-2-[4-(3,4-dihydro-2H-1-benzopyran-6-yl)-5-(4-fluorophenyl)-2-methylthiophen-3-yl]acetic acid] | 6.72 |
| CCCc1sc(C)c(C(OC(C)(C)C)C(=O)O)c1-c1ccc2c(c1)CCCO2 (centres unmarked) [Example 65] | 5.85 |
